Data from patent publication US10670605B2, “Cysteine reactive probes and uses thereof” (The Scripps Research Institute, priority 2015, dated 2020).

What was measured:
Experiment in all cases: Competitive isoTOP-ABPP in situ (fragment-treated cells)
Assay type in all cases: cell-based
[1] = molecular target: T1, cysteines in MDA-MB-231 and Ramos cells (Homo sapiens, UniProt P24752); conditions: 200 μM, insitu
T1 sequence (P24752 34-427): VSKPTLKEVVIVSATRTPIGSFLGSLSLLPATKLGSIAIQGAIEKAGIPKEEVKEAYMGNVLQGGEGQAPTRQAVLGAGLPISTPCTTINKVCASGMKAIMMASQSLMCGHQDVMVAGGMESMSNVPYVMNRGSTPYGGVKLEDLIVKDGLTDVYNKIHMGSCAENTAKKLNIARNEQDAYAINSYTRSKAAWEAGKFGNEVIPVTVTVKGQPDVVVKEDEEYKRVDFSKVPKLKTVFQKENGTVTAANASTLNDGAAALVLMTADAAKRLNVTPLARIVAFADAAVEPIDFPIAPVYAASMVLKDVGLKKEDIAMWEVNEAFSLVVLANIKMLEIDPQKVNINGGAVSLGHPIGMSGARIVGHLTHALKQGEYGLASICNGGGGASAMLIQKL

[2] = molecular target: cysteines in MDA-MB-231 and Ramos cells (Homo sapiens, UniProt Q9BXW7); conditions: 200 μM, insitu, 231
[3] = molecular target: T2, cysteines in MDA-MB-231 and Ramos cells (Homo sapiens, UniProt Q96S55); conditions: 200 μM, insitu, 231
T2 sequence (Q96S55 1-665): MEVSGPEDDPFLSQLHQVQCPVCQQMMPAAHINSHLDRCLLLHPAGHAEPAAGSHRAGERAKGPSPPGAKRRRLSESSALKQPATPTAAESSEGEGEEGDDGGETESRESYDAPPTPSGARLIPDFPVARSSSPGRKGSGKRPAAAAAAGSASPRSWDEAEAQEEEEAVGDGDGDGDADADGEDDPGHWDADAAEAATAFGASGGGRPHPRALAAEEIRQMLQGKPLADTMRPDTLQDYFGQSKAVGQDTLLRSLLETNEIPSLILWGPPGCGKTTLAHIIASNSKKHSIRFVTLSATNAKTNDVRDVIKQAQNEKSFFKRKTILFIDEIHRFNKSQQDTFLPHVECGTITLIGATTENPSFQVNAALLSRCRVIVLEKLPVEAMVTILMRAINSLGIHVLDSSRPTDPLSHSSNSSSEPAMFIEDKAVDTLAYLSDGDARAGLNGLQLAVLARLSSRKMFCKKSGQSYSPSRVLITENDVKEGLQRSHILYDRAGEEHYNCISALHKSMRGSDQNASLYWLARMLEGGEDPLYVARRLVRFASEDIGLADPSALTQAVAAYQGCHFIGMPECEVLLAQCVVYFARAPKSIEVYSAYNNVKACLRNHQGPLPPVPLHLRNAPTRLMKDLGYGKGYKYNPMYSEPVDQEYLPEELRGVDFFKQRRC

[4] = molecular target: cysteines in MDA-MB-231 and Ramos cells (Homo sapiens, UniProt P83731); conditions: 200 μM, insitu
[5] = molecular target: cysteines in MDA-MB-231 and Ramos cells (Homo sapiens, UniProt P38606); conditions: 200 μM, insitu, 231
[6] = molecular target: T3, cysteines in MDA-MB-231 and Ramos cells (Homo sapiens, UniProt Q5T0N5); conditions: 200 μM, insitu, 231
T3 sequence (Q5T0N5 1-605): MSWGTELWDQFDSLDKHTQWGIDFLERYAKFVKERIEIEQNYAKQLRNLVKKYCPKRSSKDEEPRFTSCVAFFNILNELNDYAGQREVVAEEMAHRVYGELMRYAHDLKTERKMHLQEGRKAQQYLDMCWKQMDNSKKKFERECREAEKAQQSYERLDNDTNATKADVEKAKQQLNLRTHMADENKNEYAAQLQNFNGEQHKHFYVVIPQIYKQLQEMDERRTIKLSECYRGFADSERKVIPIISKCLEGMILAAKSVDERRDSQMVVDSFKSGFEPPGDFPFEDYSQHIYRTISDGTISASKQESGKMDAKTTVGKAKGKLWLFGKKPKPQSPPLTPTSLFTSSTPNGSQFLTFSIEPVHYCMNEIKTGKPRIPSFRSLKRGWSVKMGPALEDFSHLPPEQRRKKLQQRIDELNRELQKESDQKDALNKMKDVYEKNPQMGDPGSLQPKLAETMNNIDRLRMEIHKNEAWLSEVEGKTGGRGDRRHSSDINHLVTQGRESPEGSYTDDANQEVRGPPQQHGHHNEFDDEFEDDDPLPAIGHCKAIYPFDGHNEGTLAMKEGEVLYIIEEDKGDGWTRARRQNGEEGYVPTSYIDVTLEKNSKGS

[7] = molecular target: T4, cysteines in MDA-MB-231 and Ramos cells (Homo sapiens, UniProt P10599); conditions: 200 μM, insitu
T4 sequence (P10599 1-105): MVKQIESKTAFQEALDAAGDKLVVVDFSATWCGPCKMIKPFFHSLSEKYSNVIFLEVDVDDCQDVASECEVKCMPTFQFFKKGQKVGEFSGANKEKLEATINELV

[8] = molecular target: T5, cysteines in MDA-MB-231 and Ramos cells (Homo sapiens, UniProt P42166); conditions: 200 μM, insitu
T5 sequence (P42166 1-694): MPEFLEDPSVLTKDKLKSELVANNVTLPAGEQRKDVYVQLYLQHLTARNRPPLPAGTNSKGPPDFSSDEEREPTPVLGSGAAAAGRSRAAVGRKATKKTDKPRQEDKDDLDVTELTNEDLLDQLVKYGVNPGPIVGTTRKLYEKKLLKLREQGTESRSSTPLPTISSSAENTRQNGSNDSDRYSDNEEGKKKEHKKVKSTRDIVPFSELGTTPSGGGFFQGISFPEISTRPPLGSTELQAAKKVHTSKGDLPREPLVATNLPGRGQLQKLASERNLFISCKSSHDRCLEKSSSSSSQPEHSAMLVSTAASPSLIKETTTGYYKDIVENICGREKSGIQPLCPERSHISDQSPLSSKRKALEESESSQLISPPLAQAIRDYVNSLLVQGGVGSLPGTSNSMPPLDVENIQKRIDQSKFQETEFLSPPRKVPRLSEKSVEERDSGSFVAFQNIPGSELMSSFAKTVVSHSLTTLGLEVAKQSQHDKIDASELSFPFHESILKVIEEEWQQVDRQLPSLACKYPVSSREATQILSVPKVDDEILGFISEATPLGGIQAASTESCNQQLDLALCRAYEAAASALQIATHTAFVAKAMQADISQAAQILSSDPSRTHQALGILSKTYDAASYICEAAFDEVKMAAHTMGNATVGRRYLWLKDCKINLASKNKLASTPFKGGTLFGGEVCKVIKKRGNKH

cysteines in MDA-MB-231 and Ramos cells (Homo sapiens, UniProt P38606), sequence (P38606 whole entry): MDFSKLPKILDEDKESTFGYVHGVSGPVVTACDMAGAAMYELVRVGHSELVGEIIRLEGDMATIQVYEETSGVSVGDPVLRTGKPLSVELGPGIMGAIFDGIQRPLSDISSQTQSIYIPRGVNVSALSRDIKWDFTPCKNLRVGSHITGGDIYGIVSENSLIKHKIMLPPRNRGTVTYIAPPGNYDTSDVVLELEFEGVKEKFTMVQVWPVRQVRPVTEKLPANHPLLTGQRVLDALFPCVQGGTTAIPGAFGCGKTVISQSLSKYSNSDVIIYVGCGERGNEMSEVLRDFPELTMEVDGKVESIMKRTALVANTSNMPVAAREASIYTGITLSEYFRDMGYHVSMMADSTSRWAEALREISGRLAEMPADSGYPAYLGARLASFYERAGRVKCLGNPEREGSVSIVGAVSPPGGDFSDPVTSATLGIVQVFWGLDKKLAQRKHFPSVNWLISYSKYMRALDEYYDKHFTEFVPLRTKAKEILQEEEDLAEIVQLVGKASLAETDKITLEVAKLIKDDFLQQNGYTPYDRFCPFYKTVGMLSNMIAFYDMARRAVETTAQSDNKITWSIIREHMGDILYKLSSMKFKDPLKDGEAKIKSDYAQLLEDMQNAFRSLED
cysteines in MDA-MB-231 and Ramos cells (Homo sapiens, UniProt Q9BXW7), sequence (Q9BXW7 24-423): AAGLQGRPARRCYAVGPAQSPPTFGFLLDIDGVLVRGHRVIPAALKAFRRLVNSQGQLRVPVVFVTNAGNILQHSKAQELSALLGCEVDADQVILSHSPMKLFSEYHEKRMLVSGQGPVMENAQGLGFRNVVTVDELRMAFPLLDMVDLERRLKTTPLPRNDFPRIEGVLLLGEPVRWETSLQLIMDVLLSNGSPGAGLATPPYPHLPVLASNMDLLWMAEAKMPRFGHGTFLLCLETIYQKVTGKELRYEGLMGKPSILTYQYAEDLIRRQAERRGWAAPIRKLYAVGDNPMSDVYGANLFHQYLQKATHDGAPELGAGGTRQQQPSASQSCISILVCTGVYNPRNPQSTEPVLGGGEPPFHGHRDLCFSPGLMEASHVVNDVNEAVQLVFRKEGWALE

Row | SMILES | isoTOP-ABPP ratio P24752_C119 [1]; 231 | isoTOP-ABPP ratio P24752_C413 [1]; 231 | isoTOP-ABPP ratio, P24752_C126 [1]; 231 | isoTOP-ABPP ratio, P24752_C196 [1]; 231 | isoTOP-ABPP ratio P24752_C119 ([1]; ramos) | isoTOP-ABPP ratio P24752_C413 ([1]; ramos) | isoTOP-ABPP ratio Q9BXW7_C392 [2] | isoTOP-ABPP ratio Q96S55_C272 [3] | isoTOP-ABPP ratio P83731_C6 [4]; 231 | isoTOP-ABPP ratio P83731_C6 ([4]; ramos) | isoTOP-ABPP ratio P38606_C138 [5] | isoTOP-ABPP ratio Q5T0N5_C69 [6] | isoTOP-ABPP ratio P10599_C32 [7]; 231 | isoTOP-ABPP ratio P42166_C561 [8]; 231 | isoTOP-ABPP ratio, cysteine P42166_C518 [8]; 231 | isoTOP-ABPP ratio, cysteine P42166_C629 [8]; 231 | isoTOP-ABPP ratio, cysteine P42166_C684 [8]; 231 | isoTOP-ABPP ratio P42166_C341 [8]; 231 | also measured
1 | O=C(CCl)N1CCN(S(=O)(=O)c2ccccc2F)CC1 [compound 10] | 4.5 | 7.8 | 5.9 | 5.1 | 1.5 | 2.2 | 20.0 | 1.2 | 0.4 | 2.0 | 20.0 | 2.0 | 3.8 | 17.8 | 4.2 | 2.5 | 5.2 | – | isoTOP-ABPP ratio, P24752_C196 ([1]; ramos): 2.3
2 | Cc1ccc(C=C(C#N)C(=O)NCCN2CCOCC2)cc1 [compound 41] | 1.9 | 0.9 | 0.8 | 0.9 | – | – | 1.0 | 0.8 | 0.3 | – | 0.8 | 0.6 | 0.4 | 0.7 | – | – | – | 0.5 | –
3 | C=CC(=O)Nc1cc(F)c(N2CCN(C(=O)OC(C)(C)C)CC2)c(F)c1 [compound 38] | 1.2 | 1.1 | – | 1.0 | – | – | 0.8 | 1.3 | 2.1 | – | 2.1 | 1.5 | 2.1 | 20.0 | – | – | – | – | isoTOP-ABPP ratio P42166_C518 [8]; 231: 2.2; isoTOP-ABPP ratio P42166_C684 [8]; 231: 3.0
4 | O=C(CCl)NC(=O)NC12CC3CC(CC(C3)C1)C2 [compound 12] | 4.1 | 9.9 | 5.8 | 4.6 | – | – | 5.1 | 2.4 | 0.3 | – | 20.0 | 20.0 | 20.0 | 16.1 | – | – | – | – | –
5 | O=C(CCl)NCCc1c[nH]c2ccccc12 [compound 13] | 2.1 | 3.5 | – | – | 2.8 | 20.0 | 2.0 | 0.7 | 0.7 | 1.0 | 20.0 | 1.0 | 7.9 | 1.2 | – | 1.0 | 1.2 | 1.3 | isoTOP-ABPP ratio P10599_C32 ([7]; ramos): 4.1; isoTOP-ABPP ratio P42166_C341 ([8]; ramos): 1.4; isoTOP-ABPP ratio P42166_C561 ([8]; ramos): 1.0
6 | O=C(CCl)NC12CC3CC(CC(C3)C1)C2 [compound 21] | 1.6 | 1.5 | 1.4 | 1.5 | – | – | 1.6 | 1.3 | 1.0 | – | 20.0 | 0.8 | 3.9 | 1.4 | 1.4 | 1.6 | – | 1.7 | –
